Measured values taken from a melting point compilation (Tetko et al.).

SMILES	melting point [°C]
CC(=O)Cn1cc(Br)cn1	62 to 64
N#CCc1cccnc1Cl	80 to 82
Cc1c(NS(=O)(=O)c2ccc(Cl)c([N+](=O)[O-])c2)c(=O)n(-c2ccccc2)n1C	227 to 229
Cc1cc(N2CCCC2=O)ccc1Br	107 to 109
CCC(C)C(N)C(N)=O (stereo not drawn)	76 to 78
Brc1ccc(-n2cccn2)cc1	69 to 71
CC1(C)NC(=O)N(CCCC(=O)O)C1=O	97 to 99
Cc1cccc(-c2nnc(S)o2)c1	157 to 161
O=C(O)CCS(=O)(=O)C1CCCC1	98 to 100
O=[N+]([O-])c1cn(Cc2ccc(F)cc2)cn1	109 to 111
Cc1c[nH]c(=O)n1-c1ccccc1N	194 to 196
Cc1ccc(-c2nnc(C(C)Cl)o2)cc1 (stereo not drawn)	< 17
CCC1(c2ccc(O)cc2)NC(=O)NC1=O (stereo not drawn)	279 to 281
Cc1cc(=O)[nH]c2c1cnn2C1CCCC1	259 to 261
NCc1ccc(C(N)=O)nc1	146 to 148
O=c1cc(CCl)c2cc3c(cc2o1)CCC3	142 to 144
Nc1ccccc1C(=O)Nc1ccc(F)cc1	109 to 112
O=C(O)CCn1cc[nH]c(=O)c1=O	239 to 241
CC(C)CCNC(=O)C1CSCN1 (stereo not drawn)	162 to 164
Nc1c(Cl)nc2ccccc2c1N	178 to 180
CC(C)(C)c1ccc(N2CCC(=O)CC2)cc1	69 to 71
Nc1ncc(C(F)(F)F)cc1Cl	86 to 90

SMILES	melting point [°C]
CCN(CC)S(=O)(=O)c1ccc(N2CCOCC2)c(C(=O)O)c1	149 to 151
Nc1ccc(Oc2ccc(F)cc2)cn1	74 to 76
CN1CCN(C(=O)C2CCCNC2)CC1 (stereo not drawn)	85 to 87
FC(F)n1ccnc1COc1ccc(Br)cc1	61 to 63
O=C(O)c1cnc2sc(Cc3ccccc3)cn2c1=O	197 to 199
Cc1cc(Br)c(NC(=O)CCl)c(Br)c1	177 to 178
CC(=O)c1cnn(C)c1C	47 to 49
O=C(O)C1CCCN1c1ncc(C(F)(F)F)cc1Cl (stereo not drawn)	99 to 101
CCc1ccc(/C=C/c2cc(C(=O)O)c3cc(Br)ccc3n2)cc1	286 to 288
Cc1sc2nc(S)n(C)c(=O)c2c1C	288 to 290
Cc1ccccc1OCc1csc(N)n1	95 to 97
CC(N)c1ccc2[nH]c(=O)[nH]c2c1 (stereo not drawn)	394 to 396
Cc1nc(C)c(NC(=O)OC(C)(C)C)s1	90 to 92
O=C(CO)N1CCNCC1	69 to 71
c1ccc(NCC2CCCCC2)nc1	91 to 93
Cc1nc2c(s1)C(O)CCC2 (stereo not drawn)	80 to 82
NC(=O)C1CCN(c2ccccc2N)CC1	199 to 201
Cn1ccnc1Sc1ccccc1N	121 to 123
Cc1ccc(Sc2nc(=N)s[nH]2)cc1	181 to 183
Nc1cccnc1Oc1ccccc1	107 to 109
CN(C)C(=O)Cn1cnc(N)n1	135 to 137
COc1ccc(-c2csc(C)n2)cc1	55 to 57

SMILES	melting point [°C]
Cc1ccc(N2C(=O)CC(C(=O)O)C2c2cccs2)cc1 (stereo not drawn)	175 to 177
Nc1ccc(F)c(NC(=O)C2CCCCC2)c1	157 to 159
OCc1nnc(-c2ccccc2)n1-c1ccccc1	199 to 201
O=C(CCl)NCc1cn(Cc2ccccc2)nc1-c1ccccc1	82 to 84
OCc1ccc(F)c2cccnc12	131 to 133
NC(Cc1ccccc1)CN1CCOCC1 (stereo not drawn)	54 to 56
Cc1cncc(N)c1	59 to 63
CS(=O)(=O)N1CCCC1C#N (stereo not drawn)	62 to 64
O=C1CCNc2ccccc2N1	132 to 134
O=S(=O)(Cl)c1ccc(OCC2CCCCO2)cc1 (stereo not drawn)	64 to 66
OCc1ncc(-c2ccccc2)o1	117 to 119
Nc1nc(Cl)c(Cl)cc1[N+](=O)[O-]	126 to 128
O=Cc1ccc(Br)nc1	104 to 110
CC1(C2CC2)NC(=O)NC1=O (stereo not drawn)	168 to 170
COc1cc2c(c(OC)c1OC)CCNC(=O)C2	176 to 178
Cc1ccc(C(=O)NC2CCNCC2)s1	163 to 165
Cc1noc(C)c1COc1ccc(C=O)cc1	107 to 109
COc1ccc(COc2cccc(F)c2)cc1N	57 to 59
N#Cc1ccc(C(=O)N2CCOCC2)cc1	144 to 146
Nc1ccc(-c2cn3ccccc3n2)cc1	118 to 120
Clc1nccn2nnnc12	99 to 101
O=C(O)c1cccc([N+](=O)[O-])c1N1CCOCC1	196 to 198

SMILES	melting point [°C]
O=C(O)c1csc(-c2ccco2)n1	181 to 183
CC1(c2ccc(OC(F)(F)F)cc2)NC(=O)NC1=O (stereo not drawn)	151 to 153
CC(C)Cn1cnc2c1c(=O)[nH]c(=O)n2CC(C)C	158 to 160
O=C1COCC(=O)N1	141 to 143
Nc1ccc2[nH]c(CC3CCCCC3)nc2c1	267 to 269
CN(C)S(=O)(=O)c1ccc(C#N)cc1	128 to 130
O=C(O)c1cccnc1SCc1ccc(Br)cc1	236 to 238
Clc1noc(-c2cccs2)n1	37 to 39
CCn1c(C)cc(C(=O)O)c1C	< 17
NN=c1ccc(C(N)=O)n[nH]1	251 to 253
COc1ccc2c(O)ccnc2c1	213 to 215
Nc1cc(-c2ccccc2)nn1CCO	142 to 144
NS(=O)(=O)N1CCc2ccccc21	149 to 151
O=C(O)CC(Cc1ccccc1)Cc1ccccc1	82 to 84
NC(=O)c1nc(Cl)ccc1N	164 to 166
Nc1nc(C2CC2)c(Cc2ccccc2Cl)s1	127 to 129
N#Cc1cnn2cc(C=O)cnc12	222 to 224
Oc1ccc(-c2ccc(F)cc2)nn1	269 to 271
NC1CCN(c2ccccc2)C1=O (stereo not drawn)	66 to 68

Continued, values first:

melting point [°C]	SMILES
74 to 76	O=C(NCCO)c1cccnc1
161 to 163	CN(C)C(=O)c1ccccc1O
105 to 107	CN(C)c1ccc(CCC(=O)O)cc1
115 to 117	NC(=O)CCc1ccc([N+](=O)[O-])cc1[N+](=O)[O-]
179 to 181	Cn1c(CO)nc2cc(Cl)ccc21
214 to 216	O=C(O)c1ccc(COc2ccccc2)cc1
131 to 133	Cc1cccc(-n2ncc(C(=O)O)n2)c1
173 to 175	CC(=O)c1nc2ccc(Cl)cc2[nH]1
169 to 171	CCOC(=O)NC(=S)Nc1nccs1
203 to 205	CC(=O)c1c(C)[nH]c(N=Nc2cccc(C(=O)O)c2)c1C
97 to 99	O=C(O)CCc1ccc(Br)cc1F
205 to 215	CC1CCCC(C)N1C(=O)COc1ccc(C(=O)O)cc1 (stereo not drawn)
147 to 149	CC(C)C(NC(=O)CCc1ccccc1)C(=O)O (stereo not drawn)
119 to 121	Nc1cc(S(=O)(=O)NC2CC2)ccc1O
80 to 82	CCOc1nnc(Cl)c2ccccc12
229 to 231	O=C(O)c1oc2cc(Cl)ccc2c1-c1ccccc1
144 to 146	Cc1ccc(S(=O)(=O)Cl)c(C)c1OCC(=O)O
95 to 97	O=C(CO)c1ccc(F)cc1F
66 to 68	CC(Cl)C(=O)NCc1ccccc1F (stereo not drawn)
149 to 151	O=C(O)CN(Cc1ccccc1)S(=O)(=O)c1ccc(Cl)cc1

melting point [°C]	SMILES
67 to 69	COCCOc1ccc(C=O)cc1OC
191 to 193	O=C(O)c1ccn(-c2ccc(Cl)c(Cl)c2)n1
83 to 85	CC(C)Oc1ccc(Cl)cc1C(=O)O
140 to 142	CNS(=O)(=O)Cc1ccc(CN)cc1
29 to 31	COC(=O)C(=O)CC(=O)c1cccc(Cl)c1
119 to 121	COC(=O)C1CCCN1C(=O)c1ccc([N+](=O)[O-])s1 (stereo not drawn)
45 to 47	Cc1nc(-c2cccc(NC(=O)CCl)c2)cs1
180 to 182	COc1ccc(NC(=O)/C=N/O)cc1
201 to 203	CC1=NN(c2cccc(Br)c2)C(=O)C1CC(=O)O (stereo not drawn)
110 to 112	CN(C(=O)CCl)C1(c2ccccc2Cl)CCCCC1=O (stereo not drawn)
59 to 61	CC(C(=O)O)c1cccc(F)c1 (stereo not drawn)
69 to 71	Cc1cc([N+](=O)[O-])ccc1S(=O)(=O)Cl
123 to 125	O=C(CCl)NCc1ccccc1S(=O)(=O)N1CCOCC1
61 to 63	CCN(CC)C(=O)COc1ccc(C(C)=O)cc1
189 to 191	O=C(O)c1ccc(S(=O)(=O)CCO)cc1
99 to 101	O=C(CN1CCNCC1)Nc1ccccc1Cl
111 to 113	Cc1c(N)cccc1S(=O)(=O)NC1CC1
247 to 249	CCOC(=O)Nc1ccc2c(CCl)cc(=O)oc2c1
168 to 170	O=C(O)CCN1C(=O)COc2ccccc21
51 to 53	O=C(O)CCCOc1cccc(F)c1

melting point [°C]	SMILES
49 to 51	CCC(Oc1ccccc1C)C(=O)O (stereo not drawn)
274 to 276	Cn1cnc(-c2ccc(C(=O)O)cc2)n1
123 to 125	CN(CCO)C(=O)c1ccc(O)cc1
200 to 202	O=C(O)CN1C(=O)COc2ccc([N+](=O)[O-])cc21
220 to 222	NC(=O)c1nn(CC(=O)O)c(=O)c2ccccc12
199 to 201	CC(C)Oc1cccnc1C(=O)O
206 to 208	O=C(O)c1ccc(S(=O)(=O)Cl)c(Br)c1
39 to 41	Cc1ccsc1C(=O)c1ccc(Cl)cc1F
174 to 176	Cc1ccc2nc(C)c(C(=O)O)cc2c1
158 to 160	O=C(O)COc1ccc2ccccc2c1Br
121 to 123	COc1ccc(C)cc1NC(=O)CNC(=O)CCl
118 to 120	O=S(=O)(c1ccc(Cl)c(N=C=S)c1)N1CCOCC1
141 to 145	CCN(CC)S(=O)(=O)c1ccc(Br)c(C(=O)O)c1
195 to 197	O=C(O)c1cccc(-n2cc(Br)cn2)c1
179 to 181	Cc1ccc(C(=O)O)cc1S(=O)(=O)N1CCCCC1
150 to 152	O=C(O)c1coc2ccccc12
59 to 61	CC(C)(Oc1cccc(Cl)c1)C(=O)O
269 to 271	Cc1ccc(C(N)C(=O)O)cc1 (stereo not drawn)
